According to patent publication US7262185B2, “Benzazepine derivative, process for producing the same, and use” (Takeda Chemical Industries Ltd., priority 2001, dated 2007):

How the values were obtained:
[1] = target: T1, human CCR5 chemokine receptor (Homo sapiens, UniProt P51681); experiment: Inhibition of [125I]-RANTES binding to CCR5/CHO cells (CCR5 antagonistic activity); settings: test compound 1 μM, [125I]-RANTES as ligand, room temperature; for Binding Inhibitory Ratio (%): 40 minutes; for inhibition at 1 µM: 40 min, read-out: Binding Inhibitory Ratio (%)
T1 construct: expressed in transfected cells
Method: Cloning of CCR5 gene from human spleen cDNA was conducted using the PCR method. Using spleen cDNA (0.5 ng) (TOYOBO CO., LTD, QUICK-Clone cDNA) as a template, PCR was performed in a DNA Thermal Cycler 480 (manufactured by Perkin Elmer) (reaction conditions: 30 cycles of 95° C. for 1 minute, 60° C. for 1 minute, and 75° C. for 5 minutes) by adding primer sets, SEQ. ID NO: 1 (sequence length: 34; sequence type: nucleic acid; chain number: single strand; topology: linear; kind of sequence: other nucleic acid synthetic. DNA) described in Experimental. Example (1) of WO 99/32100, and SEQ ID NO: 2 (sequence length: 34; sequence type: nucleic acid; chain number: single strand; topology: linear; kind of sequence: other nucleic acid synthetic. DNA) described in Experimental. Example (1) of WO 99/32100, (25 pmol, respectively), which were prepared referring to the nucleotide sequence of CCR5 gene, as reported by Samson et al. (Biochemistry 35 (11), 3362-3367 (1996)) and by using TaKaRa. EX Taq (Takara Shuzo). The resultant. PCR product was subjected to agarose gel electrophoresis to collect an approximately 1.0 kb. DNA fragment, which was subjected to an Original TA Cloning Kit (Funakoshi Co., Ltd.) to carry out cloning of CCR5 gene.
The plasmid obtained above was digested with restriction enzymes XbaI (Takara Shuzo Co., Ltd.) and BamHI (Takara Shuzo Co., Ltd.), and then subjected to agarose gel electrophoresis to collect DNA fragment of about 1.0 kb. The DNA fragment and plasmid pcDNA 3.1 (Funakoshi. Co., Ltd.) for expression in animal cells, which was previously digested with XbaI and BamHI, were mixed and ligated by DNA Ligation Kit Ver. 2 (Takara Shuzo Co., Ltd.). The resulting plasmid was subjected to transformation into. E. coli JM109 competent cells (Takara Shuzo Co., Ltd.) to obtain plasmid pCKR5.
CHO-K1 cells were cultured in a 750-ml tissue culture flask (Becton, Dickinson and Company.) using. Ham F12 medium (NIHON PHARMACEUTICAL CO., LTD.) containing 10% fetal bovine serum (Lifetech Oriental) and were collected using 0.5 g/L trypsin-0.2 g/L EDTA (Lifetech Oriental). The cells were washed with PBS (Lifetech Oriental), centrifuged (1000 rpm, 5 minutes), and suspended in PBS. The DNA was introduced into the cells using a Gene Pulser (Bio-Rad Laboratories, Inc.) under the following conditions. Namely, 8×10^6 cells and 10 μg of plasmid pCKR5 for expression of human CCR5 were placed in a cuvette having a 0.4-cm gap, and electroporation was carried out with a voltage 0.25 kV and 960 μF of capacitance. Then, the cells were transferred into Ham's. F12 medium containing 10% fetal bovine serum, and incubated for 24 hours. The cells were collected, centrifuged, and suspended in Ham' F12 medium containing 10% fetal bovine serum and Geneticin (Lifetech Oriental) at a concentration of 500 μg/ml. The suspension of cells was diluted to a concentration of 10^4 cells/ml, and was inoculated onto 96-well plate (Becton Dickinson), to obtain Geneticin-resistant strain.
Then, resulting. Geneticin-resistant strain were cultured on 96-well plate (Becton Dickinson), and CCR5-expressing cells were selected from the resistant cells. Namely, in an assay buffer, (Ham's F12 medium containing 0.5% BSA, and 20 mM HEPES (Wako Pure Chemical Ind., pH 7.2)) to which was added […][125I]-RANTES (Amersham) as a ligand, the cells were subjected to a binding reaction at room temperature for 40 minutes. Wells containing the cells were washed with ice-cooled PBS, and 50 μl/well of 1M NaOH was added and stirred. The cells to which the ligand was bound specifically, i.e., CCR5/CHO cells, were selected by measurement of radioactivity using a […].
The CCR5/CHO cells were inoculated onto 96-well microplate at a concentration of 5×10^4 cells/well, and were cultured for 24 hours. After removal of the medium by aspiration, to each well was added an assay buffer containing a test compound (1 μM), and [125I]/RANTES (Amersham) used as a ligand at a concentration of […]. […]

T1 sequence (P51681 whole entry): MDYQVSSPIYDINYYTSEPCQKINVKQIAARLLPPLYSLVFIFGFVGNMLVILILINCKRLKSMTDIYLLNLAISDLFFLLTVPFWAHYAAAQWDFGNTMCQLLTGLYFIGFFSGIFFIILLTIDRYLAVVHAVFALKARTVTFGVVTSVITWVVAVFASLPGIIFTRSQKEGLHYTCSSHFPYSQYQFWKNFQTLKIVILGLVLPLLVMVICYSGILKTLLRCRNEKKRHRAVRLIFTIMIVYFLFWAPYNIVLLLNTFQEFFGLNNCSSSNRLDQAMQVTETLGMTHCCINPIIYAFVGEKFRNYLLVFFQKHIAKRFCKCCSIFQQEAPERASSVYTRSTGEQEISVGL

Row | Compound | melting point [°C] | other results
1 | CCCCOCCOc1ccc(-c2ccc3c(c2)C=C(C(=O)Nc2ccc([S+]([O-])Cc4cncn4CCC)cc2)CCN3CC(C)C)cc1 (single isomer, unassigned; (-)) [Compound 373, (−)-7-[4-(2-butoxyethoxy)phenyl]-1-isobutyl-N-[4-[[[1-propylimidazol-5-yl]methyl]sulfinyl]phenyl]-2,3-dihydro-1-benzazepine-4-carboxamide] | – | Binding Inhibitory Ratio (%) [1]: 94%
2 | CCCCOCCOc1ccc(-c2ccc3c(c2)C=C(C(=O)Nc2ccc([S+]([O-])Cc4cncn4CCC)cc2)CCN3CCC)cc1 (single isomer, unassigned; (-)) [Compound 378, (−)-7-[4-(2-butoxyethoxy)phenyl]-1-propyl-N-[4-[[[1-propylimidazol-5-yl]methyl]sulfinyl]phenyl]-2,3-dihydro-1-benzazepine-4-carboxamide] | – | Binding Inhibitory Ratio (%) [1]: 87%
3 | CCCCOCCOc1ccc(-c2ccc3c(c2)C=C(C(=O)Nc2ccc([S+]([O-])Cc4nccn4CCCC(N)=O)cc2)CCN3CC(C)C)cc1 (single isomer, unassigned; (-)) [Compound 418, (−)-N-[4-[[[1-(4-amino-4-oxobutyl)-1H-imidazol-2-yl]methyl]sulfinyl]phenyl]-7-[4-(2-butoxyethoxy)phenyl]-1-isobutyl-2,3-dihydro-1H-1-benzazepine-4-carboxamide] | – | inhibition at 1 µM [1]: 92%
4 | CCCCOCCOc1ccc(-c2ccc3c(c2)C=C(C(=O)Nc2ccc(C(O)c4cccc[n+]4[O-])c(C(F)(F)F)c2)CCN3CCC)cc1 (centres unmarked) [Compound 13, 7-[4-(2-butoxyethoxy)phenyl]-N-[4-[hydroxy(1-oxidopyridin-2-yl)methyl]-3-trifluoromethylphenyl]-1-propyl-2,3-dihydro-1H-1-benzazepine-4-carboxamide] | – | inhibition at 1 µM [1]: 100%
5 | CCCCOCCOc1ccc(-c2ccc3c(c2)C=C(C(=O)Nc2ccc(OCc4nncn4CCC)cc2)CCN3CC(C)C)cc1 [Compound 26, 7-[4-(2-butoxyethoxy)phenyl]-1-isobutyl-N-[4-[(4-propyl-4H-1,2,4-triazol-3-yl)methoxy]phenyl]-2,3-dihydro-1H-1-benzazepine-4-carboxamide] | – | inhibition at 1 µM [1]: 97%
6 | CCCCOCCOc1ccc(-c2ccc3c(c2)C=C(C(=O)Nc2ccc([S+]([O-])c4cccc5nccn45)cc2)CCN3CC(C)C)cc1 (centres unmarked) [Compound 169, 7-[4-(2-butoxyethoxy)phenyl]-1-isobutyl-N-[4-(imidazo[1,2-a]pyridin-5-ylsulfinyl)phenyl]-2,3-dihydro-1H-benzazepine-4-carboxamide] | 162 to 164 | –
7 | CCCCOCCOc1ccc(-c2ccc3c(c2)C=C(C(=O)Nc2ccc(Sc4cccc5nc(C)cn45)cc2)CCN3CC(C)C)cc1 [Compound 170, 7-[4-(2-butoxyethoxy)phenyl]-1-isobutyl-N-[4-(2-methylimidazo[1,2-a]pyridin-5-ylthio)phenyl]-2,3-dihydro-1H-benzazepine-4-carboxamide] | 164 to 166 | –
8 | CCCCOCCOc1ccc(-c2ccc3c(c2)C=C(C(=O)Nc2ccc(SCc4nccn4CCCC(=O)OCC)cc2)CCN3CC(C)C)cc1 [Compound 413, ethyl 4-[2-[[[4-[[[7-[4-(2-butoxyethoxy)phenyl]-1-isobutyl-2,3-dihydro-1H-1-benzazepin-4-yl]carbonyl]amino]phenyl]thio]methyl]-1H-imidazol-1-yl]butanoate] | 103 to 104 | –
9 | CCCCOCCOc1ccc(-c2ccc3c(c2)C=C(C(=O)Nc2ccc([S+]([O-])Cc4nccn4CCCC(=O)OCC)cc2)CCN3CC(C)C)cc1 (centres unmarked) [Compound 414, ethyl 4-[2-[[[4-[[[7-[4-(2-butoxyethoxy)phenyl]-1-isobutyl-2,3-dihydro-1H-1-benzazepine-4-yl]carbonyl]amino]phenyl]sulfinyl]methyl]-1H-imidazol-1-yl]butanoate] | 134 to 136 | –
10 | CCCCOCCOc1ccc(-c2ccc3c(c2)C=C(C(=O)Nc2ccc(SCc4cncn4CC(N)=O)cc2)CCN3CC(C)C)cc1 [Compound 429, N-[4-[[[1-(2-amino-2-oxoethyl)-1H-imidazol-5-yl]methyl]thio]phenyl]-7-[4-(2-butoxyethoxy)phenyl]-1-isobutyl-2,3-dihydro-1H-1-benzazepine-4-carboxamide] | 152 to 154 | –
11 | CCCCOCCOc1ccc(-c2ccc3c(c2)C=C(C(=O)Nc2ccc([S+]([O-])Cc4cncn4CC(N)=O)cc2)CCN3CC(C)C)cc1 (centres unmarked) [Compound 430, N-[4-[[[1-(2-amino-2-oxoethyl)-1H-imidazol-5-yl]methyl]sulfinyl]phenyl]-7-[4-(2-butoxyethoxy)phenyl]-1-isobutyl-2,3-dihydro-1H-1-benzazepine-4-carboxamide] | 123 to 125 | –
12 | CCCCOCCOc1ccc(-c2ccc3c(c2)C=C(C(=O)Nc2ccc(S(=O)(=O)Cc4cncn4CC(N)=O)cc2)CCN3CC(C)C)cc1 [Compound 431, N-[4-[[[1-(2-amino-2-oxoethyl)-1H-imidazol-5-yl]methyl]sulfonyl]phenyl]-7-[4-(2-butoxyethoxy)phenyl]-1-isobutyl-2,3-dihydro-1H-1-benzazepine-4-carboxamide] | 229 to 231 | –
13 | CCCCOCCOc1ccc(-c2ccc3c(c2)C=C(C(=O)Nc2ccc4c(c2)nc([S+]([O-])Cc2cncn2CCC)n4C)CCN3CC(C)C)cc1 (centres unmarked) [Compound 445, 7-[4-(2-butoxyethoxy)phenyl]-1-isobutyl-N-[1-methyl-2-(((1-propylimidazol-5-yl)methyl)sulfinyl)benzimidazol-5-yl]-2,3-dihydro-1H-1-benzazepine-4-carboxamide] | 149.5 to 151 | –
14 | CCCCOCCOc1ccc(-c2ccc3c(c2)C=C(C(=O)Nc2ccc(/C(Cc4nccn4CCC)=N/OC)cc2)CCN3CC(C)C)cc1 [Compound 448, 7-[4-(2-butoxyethoxy)phenyl]-1-isobutyl-N-[4-((1E)-N-methoxy-2-(1-propylimidazol-2-yl)ethanimidoyl)phenyl]-2,3-dihydro-1H-1-benzazepine-4-carboxamide] | 159 to 161 | –
15 | CCCCOCCOc1ccc(-c2ccc3c(c2)C=C(C(=O)Nc2ccc(/C(Cc4nccn4CCC)=N/O)cc2)CCN3CC(C)C)cc1 [Compound 450, 7-[4-(2-butoxyethoxy)phenyl]-N-[4-((1E)-N-hydroxy-2-(1-propylimidazol-2-yl)ethaneimidoyl)phenyl]-1-isobutyl-2,3-dihydro-1H-1-benzazepine-4-carboxamide] | 153.5 to 154.5 | –
16 | CCCCOCCOc1ccc(-c2ccc3c(c2)C=C(C(=O)Nc2ccc(CC(=O)c4nccn4CCC)cc2)CCN3CC(C)C)cc1 [Compound 451, 7-[4-(2-butoxyethoxy)phenyl]-1-isobutyl-N-[4-(2-oxo-2-(1-propylimidazol-2-yl)ethyl)phenyl]-2,3-dihydro-1H-1-benzazepine-4-carboxamide] | 136.5 to 138 | –
17 | CCCCOCCOc1ccc(-c2ccc3c(c2)C=C(C(=O)Nc2ccc(C/C(=N/O)c4nccn4CCC)cc2)CCN3CC(C)C)cc1 [Compound 453, 7-[4-(2-butoxyethoxy)phenyl]-N-[4-((2Z)-2-(hydroxyimino)-2-(1-propylimidazol-2-yl)ethyl)phenyl]-1-isobutyl-2,3-dihydro-1H-1-benzazepine-4-carboxamide] | 187.5 to 189.5 | –
